Results: patent publication US12077503B2, “Substituted cyclic amides and their use as herbicides” (FMC CORPORATION, priority 2015, dated 2024)
Read-outs that look alike come from different tables or passages of the source.

Legend:
Format in all cases: in vivo
rice (Oryra sativa) = experiment: Test B flooded paddy test; settings: Oryza sativa, Flood, 250 g ai/ha, read-out: Rice plant response rating
Procedure, shortened: (§1)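 Percent control, visually estimated after 13–15 d in the greenhouse on a 0–100 basis, compares treated pots with untreated ones; compound was put into paddy water 3 cm above the soil when plants had two leaves.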

[1] = system: barnyardgrass (Echinochloa crus-galli); experiment: Test B flooded paddy test; settings: Echinochloa crus-galli, Flood, 250 g ai/ha, read-out: Barnyardgrass plant response rating
Procedure, shortened: as §1

[2] = system: ducksalad (Heteranthera limosa); experiment: Test B flooded paddy test; settings: Heteranthera limosa, Flood, 250 g ai/ha, read-out: Ducksalad plant response rating
Procedure, shortened: as §1

[3] = system: sedge, umbrella (small-flower umbrella sedge, Cyperus difformis); experiment: Test B flooded paddy test; settings: Cyperus difformis, Flood, 250 g ai/ha, read-out: Sedge, Umbrella plant response rating
Procedure, shortened: as §1

[4] = system: giant foxtail (Setaria faberii); experiment: Test A preemergence; settings: Setaria faberi, pre-emergence, 240 h; for pest or weed control at 125 g/ha: 125 g ai/ha; for pest or weed control at 500 g/ha: 500 g ai/ha
Procedure, shortened: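 Ratings of 0 (no effect) to 100 (complete control) come from visual comparison with untreated controls roughly 10 d after treatment. Test chemicals, formulated in a non-phytotoxic solvent mixture with surfactant, were applied either as a preemergence directed soil spray on seeded soil or postemergence to one- to two-leaf plants 2 to 10 cm tall.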

[5] = scale of 0 to 100 where 0 is no effect and 100 is complete control
[6] = Preemergence, visual injury rating after approximately 10 d, read-out: Foxtail, Giant plant response rating (0 to 100 scale, 0 is no effect, 100 is complete control)
[7] = preemergence, visual injury rating about 10 d after treatment, 0 to 100 scale (0 no effect, 100 complete control), read-out: Foxtail, Giant plant response rating
[8] = preemergence, 0 to 100 scale where 0 is no effect and 100 is complete control, read-out: Foxtail, Giant plant response rating
[9] = Preemergence, visual injury vs untreated controls after approximately 10 d, read-out: Foxtail, Giant plant response rating (0 to 100 scale where 0 is no effect and 100 is complete control)
[10] = 0 to 100 scale where 0 is no effect and 100 is complete control
[11] = preemergence, 0 to 100 scale where 0 is no effect and 100 is complete control, approx. 10 d, read-out: Foxtail, Giant plant response rating

| SMILES | pest or weed control at 250 g/ha (rice (Oryra sativa); [5]) [%] | pest or weed control at 250 g/ha [1, 5] [%] | pest or weed control at 250 g/ha [2, 5] [%] | pest or weed control at 250 g/ha [3, 5] [%] | pest or weed control at 125 g/ha [4, 6] [%] | pest or weed control at 500 g/ha [4, 7] [%] | pest or weed control at 125 g/ha [4, 8] [%] | pest or weed control at 500 g/ha [4, 9] [%] | pest or weed control at 250 g/ha [3, 10] [%] | pest or weed control at 250 g/ha (rice (Oryra sativa); [10]) [%] | pest or weed control at 250 g/ha [1, 10] [%] | pest or weed control at 250 g/ha [2, 10] [%] | pest or weed control at 125 g/ha [4, 11] [%] | pest or weed control at 500 g/ha [4, 8] [%] |
| --- | --- | --- | --- | --- | --- | --- | --- | --- | --- | --- | --- | --- | --- | --- |
| CN1C[C@H](c2csc(C(F)(F)F)c2)[C@@H](C(=O)Nc2cccc(F)c2F)C1=O [Compound 959] | 20 | 60 | 100 | 0 | 90 | 100 | – | – | – | – | – | – | – | – |
| Cc1cc(C)cc([C@H]2CN(C)C(=O)[C@@H]2C(=O)Nc2cccc(F)c2F)c1 [Compound 911] | 0 | 80 | 75 | 0 | – | – | 90 | 100 | – | – | – | – | – | – |
| CN1C[C@H](c2cc(F)cc(C(F)(F)F)c2)[C@@H](C(=O)Nc2ccc(F)c(F)c2F)C1=O [Compound 993] | 40 | 70 | 85 | – | 90 | 90 | – | – | 60 | – | – | – | – | – |
| Cc1cc([C@H]2CN(C)C(=O)[C@@H]2C(=O)Nc2ccc(F)c(F)c2F)ccc1Br [Compound 1101] | – | – | – | – | – | 90 | – | – | 0 | 0 | 30 | 60 | 90 | – |
| Cc1nc([C@H]2CNC(=O)[C@@H]2C(=O)Nc2cccc(F)c2F)cs1 [Compound 1180] | – | – | – | – | – | – | – | – | 0 | 0 | 0 | 85 | 0 | 50 |
| CN1C[C@H](c2cc(C(F)(F)F)cs2)[C@@H](C(=O)Nc2ccccc2F)C1=O [Compound 962] | 10 | 60 | 90 | 0 | 90 | 90 | – | – | – | – | – | – | – | – |
| COc1c(F)ccc([C@H]2CNC(=O)[C@@H]2C(=O)Nc2ccc(F)cc2F)c1Cl [Compound 883] | 20 | 0 | 80 | 0 | – | – | 60 | 90 | – | – | – | – | – | – |
| Cc1cc([C@H]2CN(C)C(=O)[C@@H]2C(=O)Nc2ccccc2S(C)(=O)=O)ccc1Cl [Compound 944] | 0 | 40 | 75 | 0 | 90 | 90 | – | – | – | – | – | – | – | – |
| Cc1cc([C@H]2CNC(=O)[C@@H]2C(=O)Nc2ccccc2Cl)ccc1C(F)(F)F [Compound 1044] | – | – | – | – | 70 | 90 | – | – | 0 | 0 | 0 | 0 | – | – |
| Cc1cc(C)cc([C@H]2CNC(=O)[C@@H]2C(=O)Nc2ccccc2F)c1 [Compound 888] | 0 | 70 | 75 | 0 | – | – | 80 | 90 | – | – | – | – | – | – |
| CC(C)COc1cccc([C@H]2CNC(=O)[C@@H]2C(=O)Nc2cccc(F)c2F)c1 [Compound 965] | 0 | 20 | 85 | 0 | 90 | 90 | – | – | – | – | – | – | – | – |
| CN1C[C@H](c2cc(F)cc(F)c2)[C@@H](C(=O)Nc2ccncc2F)C1=O [Compound 1095] | – | – | – | – | – | 90 | – | – | 0 | 0 | 0 | 50 | 0 | – |
